Assay results from ChEMBL document CHEMBL4311972, “Discovery of a benzothiophene-flavonol halting miltefosine and antimonial drug resistance in Leishmania parasites through the application of medicinal chemistry, screening and genomics” (Eur J Med Chem, 2019).

How the values were obtained:
Leishmania infantum = assay: Antileishmanial activity against luciferase expressing intracellular amastigote stage of Leishmania infantum infected in human THP1 cells assessed as parasite growth inhibition measured after 48 to 72 hrs by steady-glo luciferase assay; type: functional, organism-based
Trypanosoma brucei = assay: Antitrypanosomal activity against Trypanosoma brucei bloodstream form assessed as parasite growth inhibition incubated for 72 hrs by resazurin dye based assay; type: functional, organism-based
[1] = Cytotoxicity against human THP1 cells by MTT assay; type: cell-based, THP-1
hERG (KCNH2) = hERG (KCNH2) (Homo sapiens, UniProt Q12809); assay: Inhibition of human ERG at 10 uM incubated for 2 hrs by fluorescence polarization assay relative to control
CYP1A2 = molecular target: T1, CYP1A2 (Homo sapiens, UniProt P05177); assay: Inhibition of human microsomal CYP1A2 expressed in baculovirus infected insect cells at 10 uM using luciferin-1A2 as substrate preincubated with enzyme/substrate mixture for 30 mins followed by further incubation with NADPH for 30 mins by CYP450 luciferase Glo assay relative to control; type: ADME; details: probe luciferin-1A2
T1 sequence (P05177 whole entry): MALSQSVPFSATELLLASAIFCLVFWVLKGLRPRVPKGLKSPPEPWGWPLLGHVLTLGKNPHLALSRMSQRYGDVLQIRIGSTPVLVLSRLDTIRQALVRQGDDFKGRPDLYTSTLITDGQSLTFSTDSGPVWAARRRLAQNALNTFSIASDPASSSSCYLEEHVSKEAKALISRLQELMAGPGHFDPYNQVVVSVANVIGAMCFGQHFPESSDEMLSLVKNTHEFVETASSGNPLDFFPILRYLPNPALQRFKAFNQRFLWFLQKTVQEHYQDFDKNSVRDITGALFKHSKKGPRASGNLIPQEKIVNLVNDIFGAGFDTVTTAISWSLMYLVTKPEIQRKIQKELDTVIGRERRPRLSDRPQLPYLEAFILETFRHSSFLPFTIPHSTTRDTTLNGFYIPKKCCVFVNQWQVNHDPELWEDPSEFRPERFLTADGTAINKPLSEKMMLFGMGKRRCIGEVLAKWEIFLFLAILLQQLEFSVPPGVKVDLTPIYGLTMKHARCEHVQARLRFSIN

CYP2C9 = CYP2C9 (Homo sapiens, UniProt P11712); assay: Inhibition of human microsomal CYP2C9 expressed in baculovirus infected insect cells at 10 uM using luciferin-H as substrate preincubated with enzyme/substrate mixture for 30 mins followed by further incubation with NADPH for 30 mins by CYP450 luciferase Glo assay relative to control; type: ADME; details: probe luciferin-H
CYP2C19 = CYP2C19 (Homo sapiens, UniProt P33261); assay: Inhibition of human microsomal CYP2C19 expressed in baculovirus infected insect cells at 10 uM using luciferin-H EGE as substrate preincubated with enzyme/substrate mixture for 30 mins followed by further incubation with NADPH for 30 mins by CYP450 luciferase Glo assay relative to control; type: ADME; details: probe luciferin-H EGE
CYP2D6 = CYP2D6 (Homo sapiens, UniProt P10635); assay: Inhibition of human microsomal CYP2D6 expressed in baculovirus infected insect cells at 10 uM using luciferin-ME as substrate preincubated with enzyme/substrate mixture for 30 mins followed by further incubation with NADPH for 30 mins by CYP450 luciferase Glo assay relative to control; type: ADME; details: probe luciferin-ME
CYP3A4 = CYP3A4 (Homo sapiens, UniProt P08684); assay: Inhibition of human microsomal CYP3A4 expressed in baculovirus infected insect cells at 10 uM using luciferin-IPA as substrate preincubated with enzyme/substrate mixture for 30 mins followed by further incubation with NADPH for 30 mins by CYP450 luciferase Glo assay relative to control; type: ADME; details: probe luciferin-IPA
[2] = Cytotoxicity against human A549 cells assessed as cell growth at […] incubated for 48 hrs by Celltiter-Glo luminescence assay relative to control; type: cell-based; parameters: dose or concentration left out as unconfirmed; details: read-out: Activity
786-0 = assay: Mitochondrial toxicity in human 786-0 cells at 10 uM incubated with compound for 6 hrs followed by incubation with MitoTracker Red chloromethyl-X-rosamine dye for 45 mins by imaging analysis; type: cell-based; details: 786-0, 6 h
[3] = Trypanosoma brucei, 72 h, read-out: EC50

CYP3A4, sequence (P08684 whole entry): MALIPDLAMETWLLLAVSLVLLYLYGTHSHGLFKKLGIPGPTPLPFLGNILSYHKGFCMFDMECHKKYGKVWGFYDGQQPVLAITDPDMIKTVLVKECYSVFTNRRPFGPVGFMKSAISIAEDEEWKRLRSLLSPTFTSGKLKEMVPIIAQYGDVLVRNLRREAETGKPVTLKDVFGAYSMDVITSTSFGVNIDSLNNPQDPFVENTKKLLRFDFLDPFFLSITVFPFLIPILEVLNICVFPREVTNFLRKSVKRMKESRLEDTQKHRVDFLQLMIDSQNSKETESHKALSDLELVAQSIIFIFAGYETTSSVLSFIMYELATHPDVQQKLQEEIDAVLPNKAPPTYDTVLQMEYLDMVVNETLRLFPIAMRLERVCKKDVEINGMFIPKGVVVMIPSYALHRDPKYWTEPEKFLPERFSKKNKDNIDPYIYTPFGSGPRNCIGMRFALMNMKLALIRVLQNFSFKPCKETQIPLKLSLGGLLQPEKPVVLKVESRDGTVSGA
CYP2C19, sequence (P33261 whole entry): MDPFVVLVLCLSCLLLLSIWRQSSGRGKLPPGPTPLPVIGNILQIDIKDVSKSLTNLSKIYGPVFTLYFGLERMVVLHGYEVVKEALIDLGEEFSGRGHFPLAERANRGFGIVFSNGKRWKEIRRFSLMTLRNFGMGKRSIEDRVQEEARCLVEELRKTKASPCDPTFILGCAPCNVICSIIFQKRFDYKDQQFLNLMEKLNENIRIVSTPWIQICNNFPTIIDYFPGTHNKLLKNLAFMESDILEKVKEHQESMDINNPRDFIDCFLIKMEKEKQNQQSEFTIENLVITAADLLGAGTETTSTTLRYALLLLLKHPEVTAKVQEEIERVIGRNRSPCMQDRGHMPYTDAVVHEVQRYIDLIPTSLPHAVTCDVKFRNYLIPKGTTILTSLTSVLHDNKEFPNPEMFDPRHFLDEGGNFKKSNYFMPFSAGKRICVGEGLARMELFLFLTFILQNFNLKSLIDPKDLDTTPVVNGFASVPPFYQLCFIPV
CYP2C9, sequence (P11712 whole entry): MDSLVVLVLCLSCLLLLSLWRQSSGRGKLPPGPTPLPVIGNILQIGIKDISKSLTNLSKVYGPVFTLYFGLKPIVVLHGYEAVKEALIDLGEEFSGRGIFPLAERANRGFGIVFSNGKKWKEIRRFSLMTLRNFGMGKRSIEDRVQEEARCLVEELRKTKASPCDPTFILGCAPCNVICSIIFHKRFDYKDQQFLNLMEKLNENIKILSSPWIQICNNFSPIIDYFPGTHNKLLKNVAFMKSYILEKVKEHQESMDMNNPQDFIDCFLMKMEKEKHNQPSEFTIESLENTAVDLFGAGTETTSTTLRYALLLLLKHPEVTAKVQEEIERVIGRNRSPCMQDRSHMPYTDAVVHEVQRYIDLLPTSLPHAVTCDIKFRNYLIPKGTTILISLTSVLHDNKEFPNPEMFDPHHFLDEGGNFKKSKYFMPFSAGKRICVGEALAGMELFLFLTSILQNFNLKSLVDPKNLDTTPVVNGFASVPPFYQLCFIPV
CYP2D6, sequence (P10635 whole entry): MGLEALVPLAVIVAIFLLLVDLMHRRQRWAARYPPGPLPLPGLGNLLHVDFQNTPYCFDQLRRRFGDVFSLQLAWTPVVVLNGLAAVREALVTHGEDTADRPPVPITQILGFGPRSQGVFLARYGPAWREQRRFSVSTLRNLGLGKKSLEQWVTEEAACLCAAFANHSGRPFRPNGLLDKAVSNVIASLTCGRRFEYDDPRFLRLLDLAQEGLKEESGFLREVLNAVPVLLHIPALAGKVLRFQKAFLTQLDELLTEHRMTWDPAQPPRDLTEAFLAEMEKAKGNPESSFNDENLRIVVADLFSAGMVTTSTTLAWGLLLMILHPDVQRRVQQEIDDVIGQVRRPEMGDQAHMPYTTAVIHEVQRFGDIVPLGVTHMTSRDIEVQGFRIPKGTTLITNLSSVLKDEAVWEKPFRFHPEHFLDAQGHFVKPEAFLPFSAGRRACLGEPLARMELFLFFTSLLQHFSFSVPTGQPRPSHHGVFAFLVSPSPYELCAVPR
hERG (KCNH2), sequence (Q12809 whole entry): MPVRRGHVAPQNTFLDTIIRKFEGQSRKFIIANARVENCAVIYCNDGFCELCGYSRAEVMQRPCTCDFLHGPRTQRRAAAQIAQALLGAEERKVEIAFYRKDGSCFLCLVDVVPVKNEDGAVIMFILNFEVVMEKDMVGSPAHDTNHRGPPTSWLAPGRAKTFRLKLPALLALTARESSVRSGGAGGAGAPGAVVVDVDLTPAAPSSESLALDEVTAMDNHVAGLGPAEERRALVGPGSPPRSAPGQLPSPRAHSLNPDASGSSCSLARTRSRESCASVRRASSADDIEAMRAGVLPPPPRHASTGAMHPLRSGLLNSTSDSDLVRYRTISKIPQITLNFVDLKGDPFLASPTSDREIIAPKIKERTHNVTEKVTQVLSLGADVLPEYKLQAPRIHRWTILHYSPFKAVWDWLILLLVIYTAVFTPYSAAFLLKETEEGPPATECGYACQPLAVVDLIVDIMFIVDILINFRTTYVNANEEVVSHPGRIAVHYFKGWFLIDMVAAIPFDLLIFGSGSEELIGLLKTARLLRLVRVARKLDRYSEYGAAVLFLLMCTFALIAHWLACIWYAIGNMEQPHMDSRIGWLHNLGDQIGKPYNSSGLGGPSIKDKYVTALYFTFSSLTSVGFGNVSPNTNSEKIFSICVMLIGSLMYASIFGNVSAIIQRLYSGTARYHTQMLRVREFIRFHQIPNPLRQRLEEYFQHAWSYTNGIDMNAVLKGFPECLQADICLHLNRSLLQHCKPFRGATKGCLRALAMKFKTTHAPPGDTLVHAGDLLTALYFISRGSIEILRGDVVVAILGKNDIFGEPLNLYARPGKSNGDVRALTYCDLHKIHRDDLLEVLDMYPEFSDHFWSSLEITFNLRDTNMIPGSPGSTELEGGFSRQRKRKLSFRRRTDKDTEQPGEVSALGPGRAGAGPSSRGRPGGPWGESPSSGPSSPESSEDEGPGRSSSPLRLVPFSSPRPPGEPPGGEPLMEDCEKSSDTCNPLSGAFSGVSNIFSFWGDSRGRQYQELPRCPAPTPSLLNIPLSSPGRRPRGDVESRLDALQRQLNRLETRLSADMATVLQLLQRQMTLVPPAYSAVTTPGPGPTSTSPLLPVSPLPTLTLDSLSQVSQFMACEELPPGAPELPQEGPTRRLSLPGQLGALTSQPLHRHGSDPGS

| SMILES | EC50 (Leishmania infantum) | EC50 (Trypanosoma brucei; [3]) | CC50 [1] | inhibition at 2 h, 10 µM (hERG (KCNH2)) | inhibition at 0.5 h, 10 µM (CYP1A2) | inhibition at 0.5 h, 10 µM (CYP2C9) | inhibition at 0.5 h, 10 µM (CYP2C19) | inhibition at 0.5 h, 10 µM (CYP2D6) | inhibition at 0.5 h, 10 µM (CYP3A4) | viability at 48 h [2] | Activity (786-0) | EC50 (Trypanosoma brucei) |
| --- | --- | --- | --- | --- | --- | --- | --- | --- | --- | --- | --- | --- |
| COc1ccc2c(=O)c(O)c(-c3csc4ccccc34)oc2c1 | Not Active | 3.1 µM | 25 to 50 µM | -4.35% | 90% | 28.1% | 62.3% | 20.3% | 5.81% | 53.9% | -22.67% |  |
| COc1ccc2oc(-c3cn(C)c4ccccc34)c(O)c(=O)c2c1 |  |  |  | 12.7% | 89.2% | -0.02% | -1.53% | 3.57% | 22% | 18.6% | -1.87% |  |
| CCCOc1c(-c2csc3ccccc23)oc2ccc(OC)cc2c1=O | Not Active |  | 12.5 to 25 µM | 33.9% | 57.2% | 19.6% | 31.7% | 66.5% | 48.2% | 60.1% | 95.63% | Not Active |
| COc1ccc2oc(-c3ccc4ncccc4c3)c(O)c(=O)c2c1 |  |  | > 100 µM | 16.1% | 27.4% | -3.36% | -8.24% | -15.1% | -3.86% | 101% | -7.05% | Not Active |
| Cc1ccsc1-c1oc2cc(O)ccc2c(=O)c1O |  |  | 12.5 to 20 µM | -1.79% | 108% | 43.8% | 57.9% | 24.1% | 73.8% | 83.4% | -3.38% | Not Active |
| O=c1c(O)c(-c2ccco2)oc2cc(O)ccc12 |  |  | > 100 µM | 18.7% | 93.5% | 83.7% | 65.4% | 28.4% | 14.1% | 108% | -1.18% | Not Active |
| COc1ccc2c(=O)c(O)c(-c3ccco3)oc2c1 |  |  | > 100 µM | -3.37% | 103% | 46.3% | 68.7% | 23.4% | -0.65% | 102% | -1.6% | Not Active |
| O=c1c(O)c(-c2csc3ccccc23)oc2ccccc12 | Not Active | 2.6 µM | < 25 µM | -22.7% | 97.7% | 28.9% | 31.3% | 6.45% | -1.84% | 50.3% | -22.23% |  |
| COc1ccc2oc(-c3ccco3)c(O)c(=O)c2c1 |  |  | 50 to 100 µM | -1.31% | 104% | 71.3% | 54.3% | 50.8% | 14.1% | 106% | -0.99% | Not Active |
| O=c1c(O)c(-c2csc3ccccc23)oc2cc(F)ccc12 | Not Active |  | 25 to 50 µM | 11.6% | 80.6% | 26.5% | 24.2% | 23% | 9.54% | 124% | -22.29% |  |
